Laboratory results as given in patent US20080207560A1, “Composition For External Use” (priority 2005, published 2008).

Assay: Solubility in phosphate buffer (statement)
Assay type: physicochemical

CC1=C(/C=C/C(C)=C/C=C/C(C)=C/C(=O)Oc2cc(C)c3c(c2)CC[C@@](C)(CCC[C@H](C)CCC[C@H](C)CCCC(C)C)O3)C(C)(C)CCC1 [d-δ-tocopheryl retinoate]
solubility in phosphate buffer: sparingly soluble
